“And” between values parts separate entries of the source, which are not always exact repeats. Equal entries are not always repeated. “Also recorded” adds a separate entry of the source.
What was measured:
hTPC1 = molecular target: T1, hTPC1 (Homo sapiens, UniProt Q9ULQ1); assay: Whole-endolysosome recordings of ITPC1; type: biochemical
T1 construct: expressed in transfected cells; host or cells: Cos1

hTPC2 = molecular target: T2, hTPC2 (Homo sapiens, UniProt Q8NHX9); assay: Whole-endolysosome recordings of ITPC2; type: biochemical; settings: for Dose-dependent activation of TPC2 (normalized current): individual patches; for inactivation of ITPC2, I500ms / I10ms: @-120mV
T2 construct: expressed in transfected cells; host or cells: Cos1 and HEK293

[1] = molecular target: T3, surface-expressing mutant TPC2 channel (TPC2^LL/AA) in HEK293 cells (Homo sapiens, UniProt Q8NHX9, L11A/L12A); assay: Whole-cell recordings of ITPC2-LL/AA; type: cell-based; settings: for voltage-dependent inactivation of ITPC2, I1s / 0s: @-140mV, whole-cell
T3 construct: expressed in transfected cells; host or cells: HEK293
Summary of the method: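 HEK293 cells transiently expressing EGFP-tagged human TPC2 L11A/L12A, a plasma-membrane-targeted mutant, recorded 24–36 h post-transfection. Whole-cell patch clamp with fast perfusion of bath solutions; currents digitized at 10 kHz and filtered at 2 kHz.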

[2] = tested on: endogenous TPCs in WT HAP1 cells; assay: Whole-endolysosome recordings of endogenous ITPC in WT HAP1 cells; type: biochemical, human
[3] = PI(3,5)P2 0.3 µM, LyNa-VA1.2 100 µM, LyNA1 300 µM, individual tests
[4] = LyNA1 (300 µM)-induced whole-cell ITPC2-LL/AA, individual

T2 sequence (Q8NHX9 whole entry): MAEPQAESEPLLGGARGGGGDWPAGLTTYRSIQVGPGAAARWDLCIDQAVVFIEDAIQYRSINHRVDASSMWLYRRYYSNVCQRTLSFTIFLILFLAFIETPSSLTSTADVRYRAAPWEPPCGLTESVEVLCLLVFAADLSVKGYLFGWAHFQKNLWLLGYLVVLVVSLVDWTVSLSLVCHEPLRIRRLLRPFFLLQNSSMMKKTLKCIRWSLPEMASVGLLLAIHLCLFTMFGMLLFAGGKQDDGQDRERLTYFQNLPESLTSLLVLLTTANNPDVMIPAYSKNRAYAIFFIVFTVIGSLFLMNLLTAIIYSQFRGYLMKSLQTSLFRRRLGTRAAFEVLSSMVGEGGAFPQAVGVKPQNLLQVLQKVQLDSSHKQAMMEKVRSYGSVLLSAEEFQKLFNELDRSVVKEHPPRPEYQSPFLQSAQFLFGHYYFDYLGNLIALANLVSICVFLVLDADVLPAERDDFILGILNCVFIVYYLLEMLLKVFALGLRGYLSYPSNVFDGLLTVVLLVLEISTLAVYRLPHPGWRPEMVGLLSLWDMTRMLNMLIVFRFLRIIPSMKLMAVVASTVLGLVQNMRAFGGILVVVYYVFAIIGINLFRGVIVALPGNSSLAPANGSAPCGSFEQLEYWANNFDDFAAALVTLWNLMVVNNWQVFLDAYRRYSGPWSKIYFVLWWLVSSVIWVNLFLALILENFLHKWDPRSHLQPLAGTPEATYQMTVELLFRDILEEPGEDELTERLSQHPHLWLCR
T3 sequence (Q8NHX9 whole entry L11A/L12A): as the sequence (Q8NHX9 whole entry) above, with L11A, L12A counted along it

Nc1nc2ccc(OC(F)(F)F)cc2s1 [LyNA1, Riluzole]
effect on whole-endolysosome ITPC1 (in words) (hTPC1): inhibited ITPC1 | cation selectivity of induced whole-endolysosome ITPC2 (in words) (hTPC2): highly selective for Na^+ over K^+ | voltage dependence of TPC2 activation (in words) (hTPC2): voltage independent; also recorded: no apparent voltage-dependent activation | Dose-dependent activation of TPC2 (normalized current) (hTPC2; 10 µM +10nM PI(3,5)P2): 0.03469 and -0.1321 and -0.1628 | Dose-dependent activation of TPC2 (normalized current) (hTPC2; 50 µM +10nM PI(3,5)P2): 0.02967 and -0.04581 and -0.07904 | Dose-dependent activation of TPC2 (normalized current) (hTPC2; 50 µM, absence of PI(3,5)P2): 0.02084 and 0.03963 and 0.0267 | Dose-dependent activation of TPC2 (normalized current) (hTPC2; 100 µM +10nM PI(3,5)P2): 0.3825 and 0.3197 and 0.06652 | Dose-dependent activation of TPC2 (normalized current) (hTPC2; 100 µM, absence of PI(3,5)P2): 0.1347 and 0.1166 and 0.2034 and 0.258 and 0.1062 | Dose-dependent activation of TPC2 (normalized current) (hTPC2; 150 µM +10nM PI(3,5)P2): 0.5952 and 0.5358 and 0.2713 | Dose-dependent activation of TPC2 (normalized current) (hTPC2; 150 µM, absence of PI(3,5)P2): 0.4553 and 0.5013 and 0.5031 and 0.7594 and 0.3882 | Dose-dependent activation of TPC2 (normalized current) (hTPC2; 300 µM +10nM PI(3,5)P2): 0.9432 and 0.8992 and 0.9659 | Dose-dependent activation of TPC2 (normalized current) (hTPC2; 300 µM, absence of PI(3,5)P2): 0.9388 and 0.9543 | Dose-dependent activation of TPC2 (normalized current) (hTPC2; 400 µM +10nM PI(3,5)P2): 1 (2×) and 1.003 | Dose-dependent activation of TPC2 (normalized current) (hTPC2; 400 µM, absence of PI(3,5)P2): 0.9725 and 0.9884 and 0.9899 and 0.9935 and 0.9997 and 0.9921 | EC50 (hTPC2; + PI(3,5)P2 (10 nM)): 175 ± 19 µM | EC50 (hTPC2; - PI(3,5)P2): 181 ± 6 µM | inactivation of ITPC2, I500ms / I10ms (hTPC2; [3]): 0.9047 and 1.003 and 0.9967 and 0.9738 | inactivation of ITPC2, I500ms / I10ms (hTPC2; mean): 0.9697 | combined effect with PI(3,5)P2 on whole-endolysosome ITPC2 (in words) (hTPC2; PI(3,5)P2 50 nM): additive but not synergistic activation; also recorded: Additive effects | Rectification index of ITPC2, I+80mV/I-80mV (hTPC2; [3]): 0.903 and 1.02 and 0.912 and 0.8953 | Rectification index of ITPC2, I+80mV/I-80mV (hTPC2; PI(3,5)P2 0.3 µM, LyNa-VA1.2 100 µM, LyNA1 300 µM, mean): 0.93 ± 0.03 and 0.9325 | activation of whole-endolysosome ITPC2 (in words) (hTPC2; bath application, symmetric Na^+): readily activated ITPC2 | I@500ms/I@10ms (current decline at steady state) (hTPC2; voltage-step protocols, at all potentials): ~1.0 | voltage-dependent inactivation of ITPC2, I1s / 0s ([1]; individual recordings): 0.9086 and 1.046 and 0.9409 | voltage-dependent inactivation of ITPC2, I1s / 0s ([1]; mean): 0.9653 | Px/PNa+, Ca2+ [1, 4]: 0.09045 and 0.1026 and 0.1022 and 0.09007 | Px/PNa+, K+ [1, 4]: 0.05625 and 0.0959 and 0.1041 | Px/PNa+, Na+ [1, 4]: 0.8393 and 1.008 and 0.9746 | activation of whole-cell ITPC2-LL/AA (in words) ([1]; bath application, symmetric Na^+, 100 µM where stated): activated large and linear whole-cell currents | activation of whole-endolysosome ITPC in WT HAP1 cells (in words) [2]: activated whole-endolysosome ITPC in WT HAP1 cells

Source: publication PMC6905855, “Agonist-specific voltage-dependent gating of lysosomal two-pore Na^+ channels” (eLife, 2019)
